Assay results as given in patent US6087334A, “Anti-diabetic peptides” (Amylin Pharmaceuticals, Inc., priority 1998, dated 2000).
Where a SMILES comes first, the peptide text is derived from it. Bridges are numbered along the chain shown (N, C = ends). The star is where a group is joined. Pentanoyl(4-Me) = CC(C)CCC(=O)*

What was measured:
[1] = biological target: T1, C1a receptor (C1a-type calcitonin receptor) (Rattus norvegicus, UniProt P32214); assay: C1a/293 competitive binding, displacement of [125I]-human calcitonin (Example C); conditions: HEK293 plasma membranes (C1a/293), [125I]-human calcitonin 20 pM
T1 construct: expressed in transfected cells
T1 sequence (P32214 25-479 isoform P32214-2 limits assumed): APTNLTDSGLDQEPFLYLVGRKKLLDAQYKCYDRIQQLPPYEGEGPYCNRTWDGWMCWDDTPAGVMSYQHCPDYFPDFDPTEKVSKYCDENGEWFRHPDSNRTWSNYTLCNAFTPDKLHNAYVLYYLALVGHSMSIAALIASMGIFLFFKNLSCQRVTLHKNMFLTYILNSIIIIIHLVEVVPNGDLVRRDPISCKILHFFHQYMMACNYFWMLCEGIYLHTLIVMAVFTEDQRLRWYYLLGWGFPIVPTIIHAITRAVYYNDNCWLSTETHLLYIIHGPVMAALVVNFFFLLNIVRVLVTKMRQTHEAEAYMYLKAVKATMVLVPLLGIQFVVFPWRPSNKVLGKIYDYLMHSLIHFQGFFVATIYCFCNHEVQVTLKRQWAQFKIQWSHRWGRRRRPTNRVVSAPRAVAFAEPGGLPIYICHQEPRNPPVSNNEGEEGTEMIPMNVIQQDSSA
Procedure: Peptide compounds of the present invention may be evaluated for binding to the C1a receptor using the procedures described in Example C. The C1a receptor is the predominant mammalian calcitonin receptor subtype. C1a pcDNA construction and transfection were carried out as previously described (Albrandt et al. 1993, FEBS Letters, 325:225-232). HEK293 cell lines showing stable expression of the rat C1a-type calcitonin receptor (C1a/293) or the human C1a-type calcitonin receptor (1154/293) were selected by G418 resistance and limiting dilution culture methods. Plasma membranes were collected from homogenized HEK293 cells and used in the receptor binding assay. Individual test peptides at concentrations spanning 6 log units starting at around 10^-6 M were examined for their ability to displace [^125 I]-human calcitonin from the plasma membrane preparation using a 96-well microtiter plate format and scintillation counting with a Wallac LKB Beta plate counter. Competitive binding curves were constructed. Non-specific binding was measured in the presence of 100 nM calcitonin. Peptide potencies (IC50 's for competitive binding) were calculated by non-linear regression using Prism™ (version 2.01, GraphPAD Software, San Diego, Calif.).
C1a/293 Competitive Binding Studies:
Compounds were evaluated for competition in binding to the C1a receptor as follows:
(§1) Reference peptides used in these studies were purchased from Bachem (Torrance, Calif.). All other chemicals were of the highest commercial grade. [^35 S]-GTPγS was purchased from NEN Life Science Products, Inc., Pittsburgh, Pa. [^125 I]-human calcitonin was purchased from Amersham Pharmacia Biotech, Inc., Piscataway, N.J.
(§2) Methods for C1a pcDNA construction and transfection have been previously described (Albrandt, et al. 1993). HEK293 cell lines stably expressing the rat C1a-type calcitonin receptor (C1a/293) or the human C1a-type calcitonin receptor (1154/293) were selected by G418 resistance and limiting dilution culture methods.
(§3) Confluent cells were detached from tissue culture flasks by incubation with 5 mM EDTA in PBS. Cells were homogenized in ice-cold 20 mM HEPES, pH 7.4 with a Polytron homogenizer. Plasma membranes were collected using three cycles of washing in fresh buffer followed by centrifugation for 15 minutes at 48,000×g. The final membrane pellet was resuspended in 20 mM HEPES buffer containing 0.2 mM phenylmethylsulfonyl fluoride (PMSF) and stored at -70° C.
Assay buffer contained 5 μg/mL bestatin, 1 μg/mL phosphoramidon, 1 mg/mL bovine serum albumin (fraction V), 1 mg/mL bacitracin, 1 mM MgCl2, and 20 mM HEPES, pH 7.4. Membranes (2-5 μg membrane protein/well), [^125 I]-human calcitonin (20 pM), and peptides were combined in 200 μL buffer in 96-well microtiter plates. After a 60 minute incubation at room temperature, well contents were harvested onto polyethyleneimine-treated GF/B glass fiber pads using a Tomtec Mach II plate harvestor (Hamden, Conn.). Dried pads were combined with scintillant and counted on a Wallac LKB Beta Plate scintillation counter (Gaithersburg, Md.). For competitive binding curves, samples were run in duplicate over a 6 log concentration range starting at 10^-6 or 10^-7 M. Non-specific binding was measured in the presence of 100 nM human calcitonin.

[2] = biological target: T1, C1a receptor (C1a-type calcitonin receptor); assay: biochemical; conditions: HEK293 plasma membranes, [35S]-GTPγS 200 pM; read-out: ED50 (nM) Example B (C1a GTPγS)
Source text: Peptide compounds of the present invention may be evaluated for agonist activity using the procedures described in Example B. The plasma membrane preparation of a 7-transmembrane-G-protein coupled receptor (GPCR) contains not only the receptor but also the G-proteins which constitute the first step in the intracellular signal transduction process when the receptor is activated by an agonist ligand. […] Agonist activation of a GPCR is accompanied by displacement of GDP by GTP from this site. Thus, measurement of the binding of a radiolabelled ligand, namely [^35 S]-GTPγS, for this binding site constitutes a measure of agonist potency for a given ligand. For agonism at the C1a receptor, a similar membrane preparation to that described below for the C1a binding studies is used. C1a pcDNA construction and transfection were carried out as previously described (Albrandt et al. 1993, FEBS Letters, 325:225-232). HEK293 cell lines showing stable expression of the rat C1a-type calcitonin receptor (C1a/293) or the human C1a-type calcitonin receptor (1154/293) were selected by G418 resistance and limiting dilution culture methods. Plasma membranes were collected from homogenized HEK293 cells and used in the [^35 S]-GTPγS assay. Individual test peptides at concentrations spanning 6 log units starting at around […] were examined for their ability to bind [^35 S]-GTPγS. Maximum agonist-specific binding was measured in the presence of 1 μM human calcitonin, constitutive binding was measured in the presence of buffer alone. Peptide potencies (EC50 's for concentration response curves) were calculated by non-linear regression using Prism™ (version 2.01, GraphPAD Software, San Diego, Calif.).
[^35 S]-GTPγS C1a Agonist Studies
Evaluation of the agonist activity of compounds versus the C1a receptor was carried out as follows:
as §1
as §2, with “1993, FEBS Letters, 325:225-232).” for “1993).”
as §3
Assay buffer contained 1 μM GDP, 1 mM EDTA, 5 mM MgCl2, 20 mM Hepes, and 150 mM NaCl, pH 7.4. Membranes (7.5 μg membrane protein/well), [^35 S]-GTPγS (200 pM), and peptides were combined in 200 μL buffer in 96-well microtiter plates. After a 75 minute incubation at room temperature, well contents were harvested onto GF/B glass fiber pads using a Tomtec Mach II plate harvestor (Hamden, Conn.). Dried pads were combined with scintillant and counted on a Wallac LKB Beta Plate scintillation counter. For concentration response curves, samples were run in duplicate over a 6 log concentration range starting at 10^-6 M or 10^-7 M. Maximum agonist-specific binding was measured in the presence of 1 μM human calcitonin, constitutive binding was measured in the presence of buffer alone.
Peptide potencies (1C50 's for competitive binding, and EC50 's for concentration response curves) were calculated by non-linear regression using Prism (version 2.01, GraphPAD Software, San Diego, Calif.).

Compound	IC50 [1] [nM]	EC50 [2] [nM]
CC(C)C[C@H](NC(=O)[C@H](CCCNC(=N)N)NC(=O)[C@H](CCC(N)=O)NC(=O)[C@@H](NC(=O)[C@H](C)NC(=O)[C@@H]1CSSC[C@H](NC(=O)[C@@H](N)CCCCN)C(=O)N[C@@H](CC(N)=O)C(=O)N[C@@H](C(C)C)C(=O)N[C@@H](C)C(=O)N[C@@H]([C@@H](C)O)C(=O)N1)[C@@H](C)O)C(=O)N[C@@H](C)C(=O)N[C@@H](CC(N)=O)C(=O)N[C@@H](Cc1ccccc1)C(=O)N[C@@H](CC(C)C)C(=O)N[C@H](C(=O)N[C@@H](CCCNC(=N)N)C(=O)N[C@@H](CO)C(=O)N[C@@H](CO)C(=O)NCC(=O)N[C@@H](Cc1ccc(O)cc1)C(N)=O)C(C)C [Example 2] (H-KCNVATCATQRLANFLVRSSGY-NH2; disulfide 2-7)	0.128	2.6
CC(C)CCC(=O)N[C@@H](CC(C)C)C(=O)N[C@@H](CO)C(=O)N[C@H](C(=O)N[C@@H](C)C(=O)N[C@@H](C)C(=O)N[C@H](C(=O)N[C@@H](C)C(=O)N[C@@H](CCCNC(=N)N)C(=O)N[C@@H](CC(C)C)C(=O)N[C@@H](C)C(=O)N[C@@H](C)C(=O)N[C@@H](Cc1ccccc1)C(=O)N[C@@H](CC(C)C)C(=O)N[C@@H](C)C(=O)N[C@@H](CCCNC(=N)N)C(=O)N[C@@H](CO)C(N)=O)[C@@H](C)O)[C@@H](C)O [Example 4] ({Pentanoyl(4-Me)}-LSTAATARLAAFLARS-NH2)	0.66	0.73
CC(C)C[C@H](NC(=O)[C@H](CCCNC(=N)N)NC(=O)[C@H](C)NC(=O)[C@@H](NC(=O)[C@H](C)NC(=O)[C@@H]1CSSC[C@H](N)C(=O)N[C@@H](CC(N)=O)C(=O)N[C@@H]([C@@H](C)O)C(=O)N[C@@H](C)C(=O)N[C@@H]([C@@H](C)O)C(=O)N1)[C@@H](C)O)C(=O)N[C@@H](C)C(=O)N[C@@H](C)C(=O)N[C@@H](Cc1ccccc1)C(=O)N[C@@H](CC(C)C)C(=O)N[C@@H](C)C(=O)N[C@@H](CCCNC(=N)N)C(N)=O [Example 7] (H-CNTATCATARLAAFLAR-NH2; disulfide 1-6)	2.7	2.2
CC(C)C[C@H](NC(=O)[C@H](CCCNC(=N)N)NC(=O)[C@H](CCC(N)=O)NC(=O)[C@@H](NC(=O)[C@H](C)NC(=O)[C@@H]1CSSC[C@H](NC(=O)[C@@H](N)CCCCN)C(=O)N[C@@H](CC(N)=O)C(=O)N[C@@H]([C@@H](C)O)C(=O)N[C@@H](C)C(=O)N[C@@H]([C@@H](C)O)C(=O)N1)[C@@H](C)O)C(=O)N[C@@H](C)C(=O)N[C@@H](C)C(=O)N[C@@H](Cc1ccccc1)C(=O)N[C@@H](CC(C)C)C(=O)N[C@H](C(=O)N[C@@H](CCCNC(=N)N)C(=O)N[C@@H](CO)C(=O)N[C@@H](CO)C(=O)NCC(=O)N[C@@H](Cc1ccc(O)cc1)C(N)=O)C(C)C [Example 8] (H-KCNTATCATQRLAAFLVRSSGY-NH2; disulfide 2-7)	3.4	4.4
CC(C)C[C@H](NC(=O)[C@H](CCCNC(=N)N)NC(=O)[C@H](CCC(N)=O)NC(=O)[C@@H](NC(=O)[C@H](C)NC(=O)[C@@H]1CSSC[C@H](NC(=O)[C@@H](N)CCCCN)C(=O)N[C@@H](CC(N)=O)C(=O)N[C@@H]([C@@H](C)O)C(=O)N[C@@H](C)C(=O)N[C@@H]([C@@H](C)O)C(=O)N1)[C@@H](C)O)C(=O)N[C@@H](C)C(=O)N[C@@H](CC(N)=O)C(=O)N[C@@H](Cc1ccccc1)C(=O)N[C@@H](CC(C)C)C(=O)N[C@H](C(=O)N[C@@H](CCCNC(=N)N)C(=O)N[C@@H](CO)C(=O)NCC(=O)N[C@@H](Cc1ccc(O)cc1)C(N)=O)C(C)C [Example 9] (H-KCNTATCATQRLANFLVRSGY-NH2; disulfide 2-7)	4.1	8.6
CC(C)C[C@H](NC(=O)[C@H](CCCNC(=N)N)NC(=O)[C@H](CCC(N)=O)NC(=O)[C@@H](NC(=O)[C@H](C)NC(=O)[C@@H]1CSSC[C@H](NC(=O)[C@@H](N)CCCCN)C(=O)N[C@@H](CC(N)=O)C(=O)N[C@@H]([C@@H](C)O)C(=O)N[C@@H](C)C(=O)N[C@@H]([C@@H](C)O)C(=O)N1)[C@@H](C)O)C(=O)N[C@@H](C)C(=O)N[C@@H](CC(N)=O)C(=O)N[C@@H](Cc1ccccc1)C(=O)N[C@@H](CC(C)C)C(=O)N[C@H](C(=O)N[C@@H](CCCNC(=N)N)C(=O)N[C@@H](C)C(=O)N[C@@H](CO)C(=O)NCC(=O)N[C@@H](Cc1ccc(O)cc1)C(N)=O)C(C)C [Example 10] (H-KCNTATCATQRLANFLVRASGY-NH2; disulfide 2-7)	4.7	8
CC(C)C[C@H](NC(=O)[C@H](CCCNC(=N)N)NC(=O)[C@H](CCC(N)=O)NC(=O)[C@@H](NC(=O)[C@H](C)NC(=O)[C@@H]1CSSC[C@H](NC(=O)[C@@H](N)CCCCN)C(=O)N[C@@H](CC(N)=O)C(=O)N[C@@H]([C@@H](C)O)C(=O)N[C@@H](C)C(=O)N[C@@H]([C@@H](C)O)C(=O)N1)[C@@H](C)O)C(=O)N[C@@H](C)C(=O)N[C@@H](CC(N)=O)C(=O)N[C@@H](Cc1ccccc1)C(=O)N[C@@H](CC(C)C)C(=O)N[C@H](C(=O)N[C@@H](Cc1c[nH]cn1)C(=O)N[C@@H](CO)C(=O)N[C@@H](CO)C(=O)NCC(=O)N[C@@H](Cc1ccc(O)cc1)C(N)=O)C(C)C [Example 11] (H-KCNTATCATQRLANFLVHSSGY-NH2; disulfide 2-7)	8.3	14
